By Kd is commonly meant the equilibrium constant for the complex coming apart.

Calls of active or inactive are those of the source. How the calls were made is not given here. Residues, ends and D or L forms follow the SMILES beside them. Bounds are passed on as bounds.

In the experiment the target is Ubiquitin-conjugating enzyme E2 N (Homo sapiens) (UniProt P61088). In words: UBE2N binders by NMR, biophysical, purified protein (AID 1552). The following applies: NMR binding to purified UBE2N.
Ubiquitin-conjugating enzyme E2 N (Homo sapiens), sequence (P61088 whole entry, looked up): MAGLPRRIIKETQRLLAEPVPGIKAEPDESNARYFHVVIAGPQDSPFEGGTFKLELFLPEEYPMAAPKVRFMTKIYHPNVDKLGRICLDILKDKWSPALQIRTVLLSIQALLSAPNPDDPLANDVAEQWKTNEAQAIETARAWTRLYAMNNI

Regarding `NC1=NC(=O)C(Cc2cccc([N+](=O)[O-])c2)S1` (stereo not drawn), the Kd was > 4 mM (inactive).

Regarding `O=C(NCc1ccccc1)c1ccc[n+]([O-])c1`, the Kd was > 4 mM (inactive).

`Cc1cc(-c2ccccc2)nc2cc(C(N)=O)nn12`: the Kd was > 4 mM (inactive).

For the compound `NC(=O)CC[C@H](N)C(=O)O`, the Kd is > 4 mM (inactive).

With `COC(=O)c1sc(N)nc1C`, the Kd was > 4 mM (inactive).

On to `Cc1ccc(S(=O)(=O)CC(=O)N(C)C)cc1`, for which the Kd was > 4 mM (inactive).

As to `O=C1N/C(=N\c2ccccn2)SC1Cc1ccccc1` (stereo not drawn), the Kd is > 4 mM (inactive).

On to `CC12CNCC(C)(CNC1)C2O` (stereo not drawn), for which the Kd was > 4 mM (inactive).

For `O=C(NCc1ccco1)c1nc2ncccn2n1`, the Kd was > 4 mM (inactive).

With `NC(=O)CCN1C(=O)c2ccccc2C1=O`, the Kd is > 4 mM (inactive).

`CN(C)CCCN1CNC(=S)NC1`: the Kd is > 4 mM (inactive).

On to `Cc1ccc(F)cc1NC(=O)c1ccc2c(c1)OCO2`, for which the Kd is > 4 mM (inactive).

Regarding `COc1cc2c(cc1OC)-c1cc3ccc(OC)c(OC)c3c[n+]1CC2`, the Kd is > 4 mM (inactive).

Consider `CS(=O)(=O)Nc1ccc(C(=O)N2CCCCC2)cc1`, for which the Kd is > 4 mM (inactive).

`Cc1occc1C(=O)NCc1ccccc1F`: the Kd was > 4 mM (inactive).

Turning to `C/C=C/C=N/NC(=O)c1ccc(=O)n(C)c1`, the Kd is > 4 mM (inactive).

For `O=C(Oc1ccc(-c2nnco2)cc1)N1CCOCC1`, the Kd was > 4 mM (inactive).

For `CC(=O)N[C@@H](CC(=O)O)C(=O)N[C@@H](CCC(=O)O)C(=O)O` (Ac-Asp-Glu-OH), the Kd is > 4 mM (inactive).

As for `CCSc1nc(N)c(NC(=O)c2ccco2)c(=O)[nH]1`, the Kd was > 4 mM (inactive).

As for `Cn1c(NCC(=O)O)nc2c1c(=O)[nH]c(=O)n2C`, the Kd is > 4 mM (inactive).

`COc1ccc(/C=C2/C(=O)N=C(N)N2C)cc1OC`: the Kd is > 4 mM (inactive).

Take `Cc1nn2c(-c3ccco3)nnc2c2ccccc12`: the Kd was > 4 mM (inactive).

As to `O=C1CN(C(=O)c2ccccc2F)c2ccccc2N1`, the Kd was > 4 mM (inactive).

With `O=C(c1ccc(F)cc1)C1CCNCC1`, the Kd was > 4 mM (inactive).

With `COc1cc2nc(N3CCNCC3)nc(N)c2cc1OC`, the Kd was > 4 mM (inactive).

Consider `CC(=O)OC1CCC23C(=O)OC45CCC(C6=CC(=O)OC6)C4(C)CCC2C5CCC3(O)C1` (stereo not drawn), for which the Kd is > 4 mM (inactive).

`CCc1ccccc1NC(=O)c1cnccn1`: the Kd is > 4 mM (inactive).

On to `O=C(O)c1cc2ccccc2o1`, for which the Kd is > 4 mM (inactive).

With `CC(C)C(=O)NC(=S)N1CCOCC1`, the Kd was > 4 mM (inactive).

For the compound `COC(=O)Nc1nc2c(s1)CCCC2`, the Kd was > 4 mM (inactive).

Regarding `CC(=O)Nc1cccs1`, the Kd is > 4 mM (inactive).

On to `OCc1ccc2ncccc2c1`, for which the Kd was > 4 mM (inactive).

On to `COC(=O)c1noc(-c2ccc(OC)cc2)n1`, for which the Kd is > 4 mM (inactive).

Turning to `CCCNC(=O)CSc1ncccc1C(=O)O`, the Kd was > 4 mM (inactive).

As for `CS(=O)(=O)N/N=C/c1cccs1`, the Kd is > 4 mM (inactive).

With `COc1cc(S(=O)(=O)N(C)C)ccc1F`, the Kd is > 4 mM (inactive).

As for `COCc1cc(=O)oc2cc(N)ccc12`, the Kd is > 4 mM (inactive).

For the compound `O=C(c1cc2ccccc2o1)c1nc2c(n1O)CCCCC2`, the Kd was > 4 mM (inactive).

As to `Cc1nnsc1C(=O)Nc1ccccc1[N+](=O)[O-]`, the Kd is > 4 mM (inactive).

For `O=C(Nc1nncs1)C1(c2ccccc2)CCCC1`, the Kd is > 4 mM (inactive).

With `CCc1nnc(NC(C)=O)s1`, the Kd is > 4 mM (inactive).

`NS(=O)(=O)c1ccc(F)cc1`: the Kd was > 4 mM (inactive).

Consider `Cc1cc(C(=O)NCc2cccnc2)cs1`, for which the Kd was > 4 mM (inactive).

Consider `CCNC(=S)N1CCCC(C(N)=O)C1` (stereo not drawn), for which the Kd is > 4 mM (inactive).

In the case of `O=C(O)c1cn(-c2ccccc2)nc1-c1cccnc1`, the Kd is > 4 mM (inactive).

Regarding `COC(=O)Nc1c(C)n(C)n(-c2ccccc2)c1=O`, the Kd is > 4 mM (inactive).

As for `CSc1nsc(SCc2cnc(C)nc2N)n1`, the Kd was > 4 mM (inactive).

In the case of `O=C(CSc1ncccn1)NCc1ccco1`, the Kd is > 4 mM (inactive).

As to `NC(=O)CSc1nnnn1-c1ccccc1`, the Kd was > 4 mM (inactive).

In the case of `O=C(Nc1ccccn1)c1cc(-n2cnnc2)ccc1Cl`, the Kd is > 4 mM (inactive).

On to `CSc1nc(NC(C)(C)C)nc(N2CCOCC2)n1`, for which the Kd was > 4 mM (inactive).

Regarding `Cc1ccc(NC(=O)/C=C2\SC(=O)NC2=O)cc1`, the Kd is > 4 mM (inactive).

Turning to `O=C(O)c1ccc(Oc2ccccc2)nc1`, the Kd was > 4 mM (inactive).

On to `O=C(O)C1CCN(S(=O)(=O)c2cccs2)CC1`, for which the Kd was > 4 mM (inactive).

In the case of `CCOC(=O)c1c(C)cc(O)c(C=O)c1O`, the Kd is > 4 mM (inactive).

For the compound `O=c1sc2ccccc2n1CN1CCOCC1`, the Kd was > 4 mM (inactive).

Consider `CC(=O)NCS(=O)(=O)c1ccc(C)cc1`, for which the Kd was > 4 mM (inactive).

As for `O=C1CSC(=Nc2ccc(F)cc2)N1`, the Kd is > 4 mM (inactive).

`OC[C@H]1O[C@@H](O[C@H]2[C@H](O)[C@@H](O)[C@@H](O)O[C@@H]2CO)[C@H](O)[C@@H](O)[C@@H]1O`: the Kd is > 4 mM (inactive).

`CN1CCN(C(=O)c2ccccc2N)CC1`: the Kd is > 4 mM (inactive).

Consider `CC(=O)N1CCN(c2ccc(N)cc2)CC1`, for which the Kd is > 4 mM (inactive).

As to `COc1ccccc1NC(=O)c1cc[n+]([O-])cc1`, the Kd is > 4 mM (inactive).

For `Cc1cc(C)nc(/N=C(/N)N2CCN(C)CC2)n1`, the Kd is > 4 mM (inactive).

For the compound `Cc1ccc(-c2nc(-c3cccnc3)no2)c(C)c1`, the Kd was > 4 mM (inactive).

Consider `O=C(O)CCC(=O)c1cccc2ccccc12`, for which the Kd is > 4 mM (inactive).

As to `COC1C=CC23c4cc5c(cc4CN(CC2O)[C@@H]3C1)OCO5` (stereo partly drawn), the Kd was > 4 mM (inactive).

For the compound `C=C1C2CC[C@@]3(C)[C@H](c4ccoc4)OC(=O)C[C@]13O[C@H]1CC(=O)C(C)(C)[C@H](C(OC(C)=O)C(=O)OC)[C@@]21C` (stereo partly drawn), the Kd was > 4 mM (inactive).

On to `NC1=NC(=O)/C(=C\c2ccco2)S1`, for which the Kd is > 4 mM (inactive).

For the compound `c1ccc2[nH]c(CCn3cncn3)nc2c1`, the Kd was > 4 mM (inactive).

In the case of `O=C(O)CSc1cccc2cccnc12`, the Kd is > 4 mM (inactive).

As for `O=C(O)c1coc2c1C(=O)CCC2`, the Kd is > 4 mM (inactive).

As for `O=C(O)c1snnc1-c1ccccc1`, the Kd was > 4 mM (inactive).

On to `Cc1nnc(N2CCc3ccccc3C2)[nH]c1=O`, for which the Kd is > 4 mM (inactive).

For the compound `O=C1NC(=O)C(=Cc2ccccc2)C(=O)N1`, the Kd was > 4 mM (inactive).

For `Cc1nn2c(=O)/c(=C/c3cccc(F)c3)sc2nc1=O`, the Kd was > 4 mM (inactive).

As for `CSc1ccccc1NC(=O)c1cnccn1`, the Kd is > 4 mM (inactive).

With `COc1cc(S(=O)(=O)Nc2cccnc2)ccc1F`, the Kd is > 4 mM (inactive).

Turning to `COC(=O)CC1SC(=O)NC1=O` (stereo not drawn), the Kd is > 4 mM (inactive).

Regarding `OCc1ccccc1CN1CCOCC1`, the Kd was > 4 mM (inactive).

On to `CCSc1nc2ccccc2n1CC(N)=O`, for which the Kd is > 4 mM (inactive).

`OC1CCCN(Cc2ccccc2)C1` (stereo not drawn): the Kd was > 4 mM (inactive).

As to `CCN1CCN(c2ncnc3c2nnn3C)CC1`, the Kd was > 4 mM (inactive).

On to `c1ccc2[nH]c(-c3cscn3)nc2c1`, for which the Kd was > 4 mM (inactive).

For the compound `CCCc1ncc(C(O)c2cccc3ccccc23)n1C` (stereo not drawn), the Kd was > 4 mM (inactive).

Consider `CC(C)n1c(Nn2cnnc2)nc2ccccc21`, for which the Kd is > 4 mM (inactive).

`COc1cccc(N2CCNCC2)c1`: the Kd was > 4 mM (inactive).

As for `Cn1ncc2c(=O)n(CC(=O)c3ccccc3)cnc21`, the Kd is > 4 mM (inactive).

For `NC(=O)CN1CC(c2ccccc2)CC1=O` (stereo not drawn), the Kd was > 4 mM (inactive).

Turning to `OCc1cc(F)cc2c1OCOC2`, the Kd is > 4 mM (inactive).

As to `Cc1cc(-c2ccc(Cl)cc2)n2nc(N)nc2n1`, the Kd was > 4 mM (inactive).

With `Nc1nc(SCc2ccc3c(c2)OCCO3)n[nH]1`, the Kd is > 4 mM (inactive).

For the compound `Cn1c(=O)[nH]c(=O)c2c1ncn2CCN1CCCCC1`, the Kd is > 4 mM (inactive).

With `CC(C)Oc1ccc(NC(N)=O)cc1`, the Kd was > 4 mM (inactive).

Take `CN(C)Cc1c(N)cccc1O`: the Kd is > 4 mM (inactive).

In the case of `OCc1ncoc1-c1ccccc1`, the Kd was > 4 mM (inactive).

Turning to `O=S1(=O)CCC(NC(=S)N2CCOCC2)C1` (stereo not drawn), the Kd was > 4 mM (inactive).

Turning to `COc1ccc(C(=O)/C=C2\NC(=S)NC2=O)cc1`, the Kd is > 4 mM (inactive).

For `O=c1oc(-c2ccccc2)nc2c1cnn2-c1ccccc1`, the Kd is > 4 mM (inactive).

In the case of `Cc1nc(-c2ccccc2)sc1CO`, the Kd is > 4 mM (inactive).

With `CSc1nn(-c2ccccc2)c(N)c1C#N`, the Kd is > 4 mM (inactive).

On to `Cc1cccc(NC(=O)c2ccc(=O)[nH]n2)c1`, for which the Kd is > 4 mM (inactive).

`NC(=O)NCCCC(N)C(=O)O` (stereo not drawn): the Kd is > 4 mM (inactive).

Turning to `Cc1nc(-c2ccc(CO)s2)cs1`, the Kd was > 4 mM (inactive).

Take `Cc1occc1C(=O)N1CCC2(CC1)OCCO2`: the Kd was > 4 mM (inactive).

Take `O=C1NC(=O)/C(=C/c2ccc(O)cc2)N1`: the Kd was > 4 mM (inactive).

Consider `COc1ccc(/C=C2\NC(=S)N(C)C2=O)cc1O`, for which the Kd was > 4 mM (inactive).

On to `COC(=O)Nc1nnc(-c2ccncc2)s1`, for which the Kd is > 4 mM (inactive).

On to `Cc1nc2nc(-c3ccco3)nn2c(C)c1Cl`, for which the Kd was > 4 mM (inactive).

Source of the values: PubChem BioAssay AID1552 (Sanford-Burnham Center for Chemical Genomics, 2009).
